Where a SMILES comes first, the peptide text is derived from it. [ ]: non-standard residue; d: D form. pGlu = O=C1CC[C@@H](C(=O)O)N1; Thz = O=C(O)[C@@H]1CSCN1
Assays:
[1] = (§1) The drug is tested on Z-028 corresponding to mouse gut metagenome with ENA study accession number: PRJEB37062 and ENA sample accession number: ERS12561827 for biotransformation under anaerobic condition. The drug concentrations were measured over 9 timepoints collected between 0 and 24 hours of incubation by liquid-chromatography-coupled mass spectrometry (LC–MS); settings: 2 µM
[2] = as §1, with “Z-022” for “Z-028”, “ERS12561821” for “ERS12561827”; settings: 2 µM
[3] = as §1, with “Z-007” for “Z-028”, “rat” for “mouse”, “ERS12561807” for “ERS12561827”; settings: 2 µM
[4] = as §1, with “WLS-350” for “Z-028”, “human” for “mouse”, “ERS12561789” for “ERS12561827”; settings: 2 µM
[5] = as §1, with “WLS-240” for “Z-028”, “human” for “mouse”, “ERS12561773” for “ERS12561827”; settings: 2 µM
[6] = as §1, with “WLS-170” for “Z-028”, “human” for “mouse”, “ERS12561762” for “ERS12561827”; settings: 2 µM
[7] = as §1, with “WLS-010” for “Z-028”, “human” for “mouse”, “ERS12561743” for “ERS12561827”; settings: 2 µM
[8] = as §1, with “WLS-006” for “Z-028”, “human” for “mouse”, “ERS12561741” for “ERS12561827”; settings: 2 µM
[9] = human gut metagenome, 24 h, 2 µM
[10] = human gut metagenome, 24 h, 2 µM; remark: listed apart in the source
[11] = human gut metagenome, 24 h, 2 µM; remark: listed apart in the source
[12] = human gut metagenome, 24 h, 2 µM; remark: listed apart in the source
[13] = human gut metagenome, 24 h, 2 µM; remark: listed apart in the source
[14] = human gut metagenome, 24 h, 2 µM; remark: listed apart in the source
[15] = human gut metagenome, 24 h, 2 µM; remark: listed apart in the source
[16] = human gut metagenome, 24 h, 2 µM; remark: listed apart in the source
[17] = human gut metagenome, 24 h, 2 µM; remark: listed apart in the source
[18] = human gut metagenome, 24 h, 2 µM; remark: listed apart in the source
[19] = human gut metagenome, 24 h, 2 µM; remark: listed apart in the source
[20] = as §1, with “WLS-073” for “Z-028”, “human” for “mouse”, “ERS12561749” for “ERS12561827”; settings: 2 µM
Further: call rule not given here.

CC(O)(CS(=O)(=O)c1ccc(F)cc1)C(=O)Nc1ccc(C#N)c(C(F)(F)F)c1 (stereo not drawn) [BICALUTAMIDE]
Bacterial Biotransformation [1]: Compound NOT metabolized
Bacterial Biotransformation [2]: Compound NOT metabolized
Bacterial Biotransformation [3]: Compound NOT metabolized
Bacterial Biotransformation [4]: Compound NOT metabolized
Bacterial Biotransformation [5]: Compound NOT metabolized
Bacterial Biotransformation [6]: Compound NOT metabolized
Bacterial Biotransformation [7]: Compound NOT metabolized
Bacterial Biotransformation [8]: Compound NOT metabolized
Bacterial Biotransformation [9]: Compound NOT metabolized
Bacterial Biotransformation [10]: Compound NOT metabolized
Bacterial Biotransformation [11]: Compound NOT metabolized
Bacterial Biotransformation [12]: Compound NOT metabolized
Bacterial Biotransformation [13]: Compound NOT metabolized
Bacterial Biotransformation [14]: Compound NOT metabolized
Bacterial Biotransformation [15]: Compound NOT metabolized
Bacterial Biotransformation [16]: Compound NOT metabolized
Bacterial Biotransformation [17]: Compound NOT metabolized
Bacterial Biotransformation [18]: Compound NOT metabolized
Bacterial Biotransformation [19]: Compound NOT metabolized

NC(=O)N1c2ccccc2CC(=O)c2ccccc21 [OXCARBAZEPINE]
Bacterial Biotransformation [1]: Compound NOT metabolized
Bacterial Biotransformation [2]: Compound metabolized
Bacterial Biotransformation [3]: Compound NOT metabolized
Bacterial Biotransformation [4]: Compound metabolized
Bacterial Biotransformation [5]: Compound NOT metabolized
Bacterial Biotransformation [6]: Compound NOT metabolized
Bacterial Biotransformation [20]: Compound NOT metabolized
Bacterial Biotransformation [9]: Compound metabolized
Bacterial Biotransformation [10]: Compound NOT metabolized
Bacterial Biotransformation [11]: Compound metabolized
Bacterial Biotransformation [12]: Compound metabolized
Bacterial Biotransformation [13]: Compound metabolized
Bacterial Biotransformation [14]: Compound NOT metabolized
Bacterial Biotransformation [15]: Compound NOT metabolized
Bacterial Biotransformation [16]: Compound NOT metabolized
Bacterial Biotransformation [17]: Compound NOT metabolized
Bacterial Biotransformation [18]: Compound NOT metabolized
Bacterial Biotransformation [19]: Compound NOT metabolized

C=CCN1CC[C@]23c4c5ccc(O)c4O[C@H]2C(=O)CC[C@@]3(O)[C@H]1C5 [NALOXONE]
Bacterial Biotransformation [1]: Compound NOT metabolized
Bacterial Biotransformation [2]: Compound NOT metabolized
Bacterial Biotransformation [3]: Compound NOT metabolized
Bacterial Biotransformation [4]: Compound NOT metabolized
Bacterial Biotransformation [5]: Compound NOT metabolized
Bacterial Biotransformation [6]: Compound NOT metabolized
Bacterial Biotransformation [20]: Compound NOT metabolized
Bacterial Biotransformation [9]: Compound NOT metabolized
Bacterial Biotransformation [10]: Compound NOT metabolized
Bacterial Biotransformation [11]: Compound NOT metabolized
Bacterial Biotransformation [12]: Compound NOT metabolized
Bacterial Biotransformation [13]: Compound metabolized
Bacterial Biotransformation [14]: Compound NOT metabolized
Bacterial Biotransformation [15]: Compound NOT metabolized
Bacterial Biotransformation [16]: Compound metabolized
Bacterial Biotransformation [17]: Compound NOT metabolized
Bacterial Biotransformation [18]: Compound NOT metabolized
Bacterial Biotransformation [19]: Compound NOT metabolized

C#C[C@]1(O)CC[C@H]2[C@@H]3CCC4=CC(=O)CC[C@@H]4[C@H]3CC[C@@]21CC [LEVONORGESTREL]
Bacterial Biotransformation [1]: Compound metabolized
Bacterial Biotransformation [2]: Compound metabolized
Bacterial Biotransformation [3]: Compound metabolized
Bacterial Biotransformation [4]: Compound metabolized
Bacterial Biotransformation [6]: Compound metabolized
Bacterial Biotransformation [20]: Compound NOT metabolized
Bacterial Biotransformation [8]: Compound metabolized
Bacterial Biotransformation [9]: Compound NOT metabolized
Bacterial Biotransformation [10]: Compound metabolized
Bacterial Biotransformation [11]: Compound metabolized
Bacterial Biotransformation [12]: Compound metabolized
Bacterial Biotransformation [14]: Compound metabolized
Bacterial Biotransformation [15]: Compound metabolized
Bacterial Biotransformation [16]: Compound metabolized
Bacterial Biotransformation [17]: Compound metabolized
Bacterial Biotransformation [18]: Compound NOT metabolized
Bacterial Biotransformation [19]: Compound NOT metabolized

CCCCCCOC(=O)/N=C(/N)c1ccc(NCc2nc3cc(C(=O)N(CCC(=O)OCC)c4ccccn4)ccc3n2C)cc1.CS(=O)(=O)O [DABIGATRAN ETEXILATE MESYLATE]
Bacterial Biotransformation [1]: Compound NOT metabolized
Bacterial Biotransformation [2]: Compound NOT metabolized
Bacterial Biotransformation [3]: Compound NOT metabolized
Bacterial Biotransformation [4]: Compound NOT metabolized
Bacterial Biotransformation [9]: Compound NOT metabolized
Bacterial Biotransformation [10]: Compound NOT metabolized
Bacterial Biotransformation [11]: Compound NOT metabolized
Bacterial Biotransformation [12]: Compound NOT metabolized
Bacterial Biotransformation [13]: Compound NOT metabolized

COC(=O)[C@H]1[C@H]2C[C@@H]3c4[nH]c5cc(OC)ccc5c4CCN3C[C@H]2C[C@@H](OC(=O)c2cc(OC)c(OC)c(OC)c2)[C@@H]1OC [RESERPINE]
Bacterial Biotransformation [1]: Compound NOT metabolized
Bacterial Biotransformation [2]: Compound metabolized
Bacterial Biotransformation [3]: Compound NOT metabolized
Bacterial Biotransformation [4]: Compound NOT metabolized
Bacterial Biotransformation [5]: Compound NOT metabolized
Bacterial Biotransformation [20]: Compound NOT metabolized
Bacterial Biotransformation [7]: Compound metabolized
Bacterial Biotransformation [8]: Compound metabolized
Bacterial Biotransformation [9]: Compound NOT metabolized
Bacterial Biotransformation [10]: Compound NOT metabolized
Bacterial Biotransformation [11]: Compound metabolized
Bacterial Biotransformation [12]: Compound metabolized
Bacterial Biotransformation [13]: Compound metabolized
Bacterial Biotransformation [14]: Compound metabolized
Bacterial Biotransformation [15]: Compound metabolized
Bacterial Biotransformation [16]: Compound metabolized
Bacterial Biotransformation [17]: Compound metabolized
Bacterial Biotransformation [19]: Compound NOT metabolized

O=C1CC[C@@H](C(=O)N2CSC[C@H]2C(=O)O)N1 [PIDOTIMOD] ([pGlu]-[Thz]-OH)
Bacterial Biotransformation [1]: Compound NOT metabolized
Bacterial Biotransformation [2]: Compound metabolized
Bacterial Biotransformation [3]: Compound NOT metabolized
Bacterial Biotransformation [4]: Compound NOT metabolized
Bacterial Biotransformation [5]: Compound NOT metabolized
Bacterial Biotransformation [6]: Compound NOT metabolized
Bacterial Biotransformation [20]: Compound NOT metabolized
Bacterial Biotransformation [7]: Compound NOT metabolized
Bacterial Biotransformation [9]: Compound NOT metabolized
Bacterial Biotransformation [10]: Compound NOT metabolized
Bacterial Biotransformation [11]: Compound NOT metabolized
Bacterial Biotransformation [12]: Compound NOT metabolized
Bacterial Biotransformation [13]: Compound NOT metabolized
Bacterial Biotransformation [16]: Compound NOT metabolized
Bacterial Biotransformation [17]: Compound NOT metabolized
Bacterial Biotransformation [18]: Compound NOT metabolized
Bacterial Biotransformation [19]: Compound NOT metabolized

CCCc1nc(C(C)(C)O)c(C(=O)OCc2oc(=O)oc2C)n1Cc1ccc(-c2ccccc2-c2nnn[nH]2)cc1 [OLMESARTAN MEDOXOMIL]
Bacterial Biotransformation [1]: Compound NOT metabolized
Bacterial Biotransformation [2]: Compound metabolized
Bacterial Biotransformation [3]: Compound metabolized
Bacterial Biotransformation [4]: Compound NOT metabolized
Bacterial Biotransformation [5]: Compound NOT metabolized
Bacterial Biotransformation [6]: Compound metabolized
Bacterial Biotransformation [20]: Compound metabolized
Bacterial Biotransformation [8]: Compound metabolized
Bacterial Biotransformation [9]: Compound metabolized
Bacterial Biotransformation [10]: Compound metabolized
Bacterial Biotransformation [11]: Compound metabolized
Bacterial Biotransformation [12]: Compound metabolized
Bacterial Biotransformation [13]: Compound NOT metabolized
Bacterial Biotransformation [14]: Compound metabolized
Bacterial Biotransformation [15]: Compound metabolized
Bacterial Biotransformation [16]: Compound NOT metabolized
Bacterial Biotransformation [17]: Compound NOT metabolized
Bacterial Biotransformation [18]: Compound NOT metabolized
Bacterial Biotransformation [19]: Compound metabolized

c1ccc([C@H]2CN3CCSC3=N2)cc1 [LEVAMISOLE]
Bacterial Biotransformation [1]: Compound metabolized
Bacterial Biotransformation [2]: Compound metabolized
Bacterial Biotransformation [3]: Compound NOT metabolized
Bacterial Biotransformation [4]: Compound metabolized
Bacterial Biotransformation [5]: Compound metabolized
Bacterial Biotransformation [6]: Compound metabolized
Bacterial Biotransformation [8]: Compound metabolized
Bacterial Biotransformation [9]: Compound metabolized
Bacterial Biotransformation [10]: Compound metabolized
Bacterial Biotransformation [11]: Compound metabolized
Bacterial Biotransformation [12]: Compound metabolized
Bacterial Biotransformation [13]: Compound metabolized
Bacterial Biotransformation [14]: Compound metabolized
Bacterial Biotransformation [15]: Compound metabolized
Bacterial Biotransformation [16]: Compound metabolized
Bacterial Biotransformation [17]: Compound NOT metabolized
Bacterial Biotransformation [18]: Compound metabolized
Bacterial Biotransformation [19]: Compound metabolized

O=c1[nH]c2ccccc2n1CCCN1CCC(n2c(=O)[nH]c3cc(Cl)ccc32)CC1 [DOMPERIDONE]
Bacterial Biotransformation [1]: Compound NOT metabolized
Bacterial Biotransformation [2]: Compound NOT metabolized
Bacterial Biotransformation [3]: Compound NOT metabolized
Bacterial Biotransformation [4]: Compound NOT metabolized
Bacterial Biotransformation [5]: Compound NOT metabolized
Bacterial Biotransformation [20]: Compound NOT metabolized
Bacterial Biotransformation [8]: Compound NOT metabolized
Bacterial Biotransformation [11]: Compound NOT metabolized
Bacterial Biotransformation [12]: Compound NOT metabolized
Bacterial Biotransformation [13]: Compound NOT metabolized
Bacterial Biotransformation [14]: Compound NOT metabolized
Bacterial Biotransformation [15]: Compound NOT metabolized
Bacterial Biotransformation [16]: Compound NOT metabolized
Bacterial Biotransformation [17]: Compound NOT metabolized
Bacterial Biotransformation [18]: Compound NOT metabolized
